The record followed here is ChEMBL document CHEMBL4823252 (J Med Chem, 2021).

Series [1] deals with MV4-11. The series can be described thus: Antitumor activity against human MV4-11 cells xenografted in mouse assessed as tumor growth inhibition at 5 mg/kg, po administered for 20 days measured once every 2 days relative to control. The class given is functional. Conditions: MV4-11, po, 480 h, time 20 day, read-out: TGI.
The target of series [2] is Receptor-type tyrosine-protein kinase FLT3 (Homo sapiens, UniProt P36888, ITD). The series can be described thus: Inhibition of FLT3 ITD mutant (unknown origin) incubated for 30 mins in presence of ATP by mobility shift assay.
In series [3] the test system is Receptor-type tyrosine-protein kinase FLT3 (Homo sapiens), P36888 [D835V]. Kind of series: Binding affinity to FLT3 D835V mutant (unknown origin) at 1000 nM relative to control.
The subject of series [4] is Receptor-type tyrosine-protein kinase FLT3 (Homo sapiens), P36888 [D835Y]. Kind of series: Binding affinity to FLT3 D835Y mutant (unknown origin) at 1000 nM relative to control.
The subject of series [5] is Receptor-type tyrosine-protein kinase FLT3 (Homo sapiens), P36888 [N841I]. The series can be described thus: Binding affinity to FLT3 N841I mutant (unknown origin) at 1000 nM relative to control.
In series [6] the test system is Receptor-type tyrosine-protein kinase FLT3 (Homo sapiens), P36888 [R834Q]. Kind of series: Binding affinity to FLT3 R834Q mutant (unknown origin) at 1000 nM relative to control.
For a further series, the species on record is Homo sapiens. Kind of series: Binding affinity to FLT3 ITD D835V mutant (unknown origin) at 1000 nM relative to control.
The subject of a further series is THP-1. The series can be described thus: Antiproliferative activity against human THP-1 cells measured after 72 hrs by CCK8 assay. Particulars: THP-1, 72 h. The class given is functional, cell-based.
For the next series, the system named is HL-60. The series can be described thus: Antiproliferative activity against human HL-60 cells measured after 72 hrs by CCK8 assay. The class given is functional, cell-based. Particulars: HL-60, 72 h.
A further series has as its system HeLa. Kind of series: Antiproliferative activity against human HeLa cells measured after 72 hrs by CCK8 assay. It is filed as functional, cell-based.
The subject of series [7] is MV4-11. The series can be described thus: Induction of cell cycle arrest in human MV4-11 cells assessed as accumulation at sub-G1 phase at 10 nM incubated for 24 hrs by flow cytometry (reference value: […]%). It is filed as functional.
In series [8] the test system is MV4-11. The series can be described thus: Induction of cell cycle arrest in human MV4-11 cells assessed as accumulation at sub-G1 phase at 100 nM incubated for 24 hrs by flow cytometry (reference value: […]%). It is filed as functional.
The subject of series [9] is MOLM-13. Kind of series: Induction of cell cycle arrest in human MOLM-13 cells assessed as accumulation at G2/M phase at 100 nM incubated for 24 hrs by flow cytometry (reference value: […]). It is filed as functional.
Series [10] has as its system MV4-11. Kind of series: Induction of apoptosis in human MV4-11 cells incubated for 24 hrs by flow cytometry. It is filed as functional, cell-based.
Series [11] has as its system MOLM-13. The series can be described thus: Induction of apoptosis in human MOLM-13 cells incubated for 24 hrs by flow cytometry. It is filed as functional, cell-based.
Series [12] has as its target Receptor-type tyrosine-protein kinase FLT3 (Homo sapiens) (UniProt P36888). The series can be described thus: Inhibition of FLT3 in human MV4-11 cells assessed as reduction in autophosphorylation at tyr589/591 residue incubated for 2 hrs by Western blot analysis. It is filed as cell-based.
The target is the same in series [13]. Kind of series: Inhibition of FLT3 in human MV4-11 cells assessed as reduction in STAT5 phosphorylation at 10 uM incubated for 2 hrs by Western blot analysis. The class given is cell-based.
A short description of series [14]: MRT (0 to last) in Sprague-Dawley rat at 1 mg/kg, iv. It is filed as ADME, organism-based. Particulars: in vivo.
Series [15] is described as follows: AUC (0 to infinity) in Sprague-Dawley rat at 10 mg/kg, po. It is filed as ADME, organism-based. Further details: route oral, time infinity, dose 10 mg/kg. Conditions: in vivo.
Series [16] can be described thus: Half life in Sprague-Dawley rat at 10 mg/kg, po. Particulars: in vivo. The class given is ADME, organism-based.
Series [17] has as its system MV4-11. Kind of series: Antitumor activity against human MV4-11 cells xenografted in mouse assessed as tumor growth inhibition at 2.5 mg/kg, po administered for 20 days measured once every 2 days relative to control. The class given is functional. Conditions: MV4-11, po, 480 h, time 20 day, read-out: TGI.
Series [18] concerns MOLM-13. The series can be described thus: Antitumor activity against human MOLM-13 cells xenografted in mouse assessed as tumor regression at 40 mg/kg, po administered for 16 days measured on day 4 relative to control. Particulars: time 16 day. The class given is functional.
The test system of the next series is Mus musculus. The series can be described thus: Induction of tumor recurrence mouse xenografted with human MOLM-13 cells at 10 to 40 mg/kg, po. The class given is functional, organism-based. Particulars: dose 10-40 mg/kg.
In series [19] the test system is MOLM-13. Kind of series: Antitumor activity against human MOLM-13 cells xenografted in po dosed mouse assessed as induction of apoptosis administered for 16 days measured once for every 2 days by caspase3 staining based immunohistochemical analysis. The class given is functional, organism-based. Particulars: time 16.0 day.
The nature of series [20]: Toxicity in mouse xenografted with human MV4-11 cells assessed as effect on spleen at 2.5 to 10 mg/kg, po administered for 16 days by hematoxylin and eosin staining assay. The class given is organism-based. Conditions: in vivo, 384 h, dose 2.5-10 mg/kg, time 16 day.
A short description of series [21]: Toxicity in mouse xenografted with human MV4-11 cells assessed as effect on lung at 2.5 to 10 mg/kg, po administered for 16 days by hematoxylin and eosin staining assay. Particulars: in vivo, 384 h, dose 2.5-10 mg/kg, time 16 day. It is filed as organism-based.
The nature of series [22]: Toxicity in mouse xenografted with human MOLM-13 cells assessed as effect on spleen at 10 to 40 mg/kg, po administered for 20 days by hematoxylin and eosin staining assay. The class given is organism-based. Conditions: in vivo, 480 h, dose 10-40 mg/kg, time 20 day.
A short description of series [23]: Toxicity in mouse xenografted with human MOLM-13 cells assessed as effect on liver at 10 to 40 mg/kg, po administered for 20 days by hematoxylin and eosin staining assay. It is filed as organism-based. Particulars: in vivo, 480 h, dose 10-40 mg/kg, time 20 day.

Each structure is given as a SMILES string. Active and inactive are the calls of the source. The rule behind the calls is not given here.

Turning to `CCN(CC)CCNC(=O)c1c(C)[nH]c(/C=C2\C(=O)Nc3ccc(F)cc32)c1C` [SUNITINIB], the inhibition in vivo at 5 mg/kg in the series with MV4-11 [1] is 29.9%.
Consider `Cc1c(NC(=O)CCN2CCCC2)c[nH]c1/C=C1\C(=O)Nc2ccc(F)cc21`, for which the IC50 amounted to 0.8 nM in series [2], 3150 nM in the series on THP-1, 4720 nM in the series on HL-60 and 1960 nM in the series on HeLa. The outcome (in series [3]; in series [4]; in [5]; in series [6]; in the series listed under Homo sapiens; in series [13]) was Active. Further, the Activity in the series with MV4-11 [7] was 28.68%; with MV4-11 [8], 30.54%; in the series on MOLM-13 [9] it was 0.9%; in the series on MV4-11 [10] it was “Dose-Dependent Effect”; in the series on MOLM-13 [11] it was “Dose-Dependent Effect”; in series [12], “Dose-Dependent Effect”. Also, the Activity in the series on MOLM-13 [18] was 100%; with MOLM-13 [19], “Dose-Dependent Effect”; in [20], “Non-Toxic”; in [21], “Non-Toxic”; in series [22] it was “Non-Toxic”; in series [23], “Non-Toxic”. In [14], this compound had an MRT last of 4 h. This compound displayed an AUC(0-inf) in [15] of 22700 ng·h/mL. This compound also had a half-life in series [16] of 6.1 h. For the same compound, the inhibition in vivo at 2.5 mg/kg in the series on MV4-11 [17] was 55.7%. For the same compound, the outcome with Mus musculus was inactive.
